Here are results for 5 compounds from US20110046147A1, “17BETA-HYDROXYSTEROID DEHYDROGENASE TYPE 1 INHIBITORS FOR THE TREATMENT OF HORMONE-RELATED DISEASES” (UNIVERSITAT DES SAARLANDES, priority 2007, published 2011).

One may read the IC50 as the concentration that gives 50% inhibition. By inhibition is commonly meant the relative decrease from the control value, in per cent.

SMILES strings stand for the structures.

The subject of assay [1] is estrogen receptor. The following applies: cited from earlier work.
For assay [2], the target named is T1, 17β-HSD1 (Homo sapiens, UniProt P14061).
T1 construct: In both cases, human placenta served as the enzyme source; from tissue; host or cells: human placenta
T1 sequence (P14061 1-328): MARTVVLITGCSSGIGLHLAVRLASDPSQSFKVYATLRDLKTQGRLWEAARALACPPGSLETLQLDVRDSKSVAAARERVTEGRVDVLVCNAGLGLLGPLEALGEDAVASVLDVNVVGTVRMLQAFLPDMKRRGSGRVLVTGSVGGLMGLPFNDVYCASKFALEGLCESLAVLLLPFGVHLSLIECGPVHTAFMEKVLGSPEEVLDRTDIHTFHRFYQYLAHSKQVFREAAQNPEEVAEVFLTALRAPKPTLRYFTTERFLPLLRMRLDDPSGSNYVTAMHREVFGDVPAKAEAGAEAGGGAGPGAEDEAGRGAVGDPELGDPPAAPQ
As to the kind of experiment: Inhibition of 17β-HSD1 (estrone to estradiol, radio-HPLC). The format is biochemical. Particulars: for IC50: human placenta enzyme, 500 nM estrone, NADH 500 μM. As to the method:
In the 17β-HSD1 test, NADH is employed as a cosubstrate at a final concentration of 500 μM in order to avoid the product inhibition occurring with NADPH. The enzyme preparation is diluted with test buffer to such an extent that the control conversion is 10 to maximally 20% (about 1:650). As the substrate, estrone in a final concentration of 500 nM is used, of which 3 nM is tritiated. 2,4,6,7-[^3H]estrone is purchased from Perkin-Elmer, Boston. The inhibitor is added as a solution in DMSO (control: pure DMSO without inhibitor; the final concentration of DMSO in the assay is 1% in all cases).
(§1) After the reaction, the substrate and product are extracted by partitioning with ether, separated by chromatography (HPLC) and quantified by means of radiodetection.

Assay [3] concerns the target T2, 17β-HSD2 (Homo sapiens, UniProt P37059).
T2 construct: from tissue; host or cells: human placenta, microsome fraction
T2 sequence (P37059 1-387): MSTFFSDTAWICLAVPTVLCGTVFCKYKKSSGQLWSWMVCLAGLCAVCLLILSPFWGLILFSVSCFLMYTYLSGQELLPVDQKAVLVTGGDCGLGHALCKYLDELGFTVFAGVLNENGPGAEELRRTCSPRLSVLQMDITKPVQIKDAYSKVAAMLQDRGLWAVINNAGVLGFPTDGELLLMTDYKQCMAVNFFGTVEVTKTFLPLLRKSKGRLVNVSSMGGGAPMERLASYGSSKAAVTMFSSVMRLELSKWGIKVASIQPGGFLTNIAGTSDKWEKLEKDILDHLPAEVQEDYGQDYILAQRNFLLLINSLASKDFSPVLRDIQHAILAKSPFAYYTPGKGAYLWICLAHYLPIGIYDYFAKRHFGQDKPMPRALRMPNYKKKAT
Description: Inhibition of 17β-HSD2 (estradiol to estrone, radio-HPLC). The format is biochemical. The following applies: human placenta microsome fraction, 500 nM estradiol, NAD+ 1500 μM. The protocol: Determination of the inhibitory activity of the potential inhibitors: Inhibition of 17β-HSD1 and 17β-HSD2: In both cases, human placenta served as the enzyme source (Lin, S.-X. et al., J. Biol. Chem., 267: 16182-16187 (1992)).
In the 17β-HSD2 test, the natural cosubstrate NAD^+ is employed at a final concentration of 1500 μM. The microsome fraction is diluted in test buffer, so that a control conversion of 20 to 30% results (about 1:350). As the substrate, estradiol in a final concentration of 500 nM is used, of which 3 nM is tritiated. 2,4,6,7-[^3H]estradiol is also purchased from Perkin-Elmer, Boston. The inhibitor is added as a solution in DMSO (control: pure DMSO without inhibitor; the final concentration of DMSO in the assay is […]). After the addition of the substrate, incubation is performed at 37° C. for 20 minutes. The reaction is quenched by the addition of HgCl2 (final concentration of HgCl2: 0.166 mM).
as §1

The target in assay [4] is T3, CYP2C19 (Homo sapiens, UniProt P33261).
T3 construct: purchased Becton Dickinson GmbH (Heidelberg)
T3 sequence (P33261 whole entry): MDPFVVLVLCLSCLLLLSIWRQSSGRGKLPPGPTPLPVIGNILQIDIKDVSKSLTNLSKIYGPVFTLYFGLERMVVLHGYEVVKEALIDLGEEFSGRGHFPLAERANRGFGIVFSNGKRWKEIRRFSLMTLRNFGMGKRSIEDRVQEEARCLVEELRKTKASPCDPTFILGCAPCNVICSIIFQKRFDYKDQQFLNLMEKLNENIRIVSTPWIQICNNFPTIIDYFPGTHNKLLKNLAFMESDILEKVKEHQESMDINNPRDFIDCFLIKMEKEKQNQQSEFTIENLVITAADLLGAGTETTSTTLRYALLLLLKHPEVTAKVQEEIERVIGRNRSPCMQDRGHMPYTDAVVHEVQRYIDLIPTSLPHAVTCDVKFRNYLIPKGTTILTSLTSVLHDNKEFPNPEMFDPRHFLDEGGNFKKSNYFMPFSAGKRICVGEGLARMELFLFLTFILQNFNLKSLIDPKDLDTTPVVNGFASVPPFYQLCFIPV
As to the kind of experiment: Inhibition of hepatic CYP enzymes: CYP2C19. The format is biochemical. Particulars: read-out: CYP2C19 IC50 (mean ± SD). The text has this:
(§2) Drug interactions (inhibition of hepatic CYP enzymes): The inhibition of six human hepatic cytochrome P450 enzymes by selected compounds was examined by means of the kit supplied by Becton Dickinson GmbH (Heidelberg).

In assay [5] the target is T4, CYP2B6 (Homo sapiens, UniProt P20813).
T4 construct: purchased Becton Dickinson GmbH (Heidelberg)
T4 sequence (P20813 1-491): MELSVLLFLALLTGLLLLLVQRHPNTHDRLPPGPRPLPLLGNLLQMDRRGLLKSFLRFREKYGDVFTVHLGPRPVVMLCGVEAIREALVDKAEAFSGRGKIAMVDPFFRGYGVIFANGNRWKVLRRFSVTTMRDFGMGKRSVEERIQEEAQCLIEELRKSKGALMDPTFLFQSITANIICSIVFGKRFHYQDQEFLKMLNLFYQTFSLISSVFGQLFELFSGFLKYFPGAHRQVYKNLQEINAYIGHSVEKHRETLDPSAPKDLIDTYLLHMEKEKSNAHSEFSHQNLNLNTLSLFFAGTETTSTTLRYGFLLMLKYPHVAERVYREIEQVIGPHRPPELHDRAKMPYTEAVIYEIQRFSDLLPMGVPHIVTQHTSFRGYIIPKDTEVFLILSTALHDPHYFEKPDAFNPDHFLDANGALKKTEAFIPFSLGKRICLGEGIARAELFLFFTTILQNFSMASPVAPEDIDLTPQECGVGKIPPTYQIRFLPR
As to the kind of experiment: Inhibition of hepatic CYP enzymes: CYP2B6. The format is biochemical. The following applies: read-out: CYP2B6 IC50 (mean ± SD).
Source text: as §2

Assay [6] has as its target T5, CYP2D6 (Homo sapiens, UniProt P10635).
T5 construct: purchased Becton Dickinson GmbH (Heidelberg)
As to the kind of experiment: Inhibition of hepatic CYP enzymes: CYP2D6. The format is biochemical. The following applies: read-out: CYP2D6 IC50 (mean ± SD).
Source text: as §2

The target of assay [7] is T6, CYP1A2 (Homo sapiens, UniProt P05177).
T6 construct: purchased Becton Dickinson GmbH (Heidelberg)
T6 sequence (P05177 1-516): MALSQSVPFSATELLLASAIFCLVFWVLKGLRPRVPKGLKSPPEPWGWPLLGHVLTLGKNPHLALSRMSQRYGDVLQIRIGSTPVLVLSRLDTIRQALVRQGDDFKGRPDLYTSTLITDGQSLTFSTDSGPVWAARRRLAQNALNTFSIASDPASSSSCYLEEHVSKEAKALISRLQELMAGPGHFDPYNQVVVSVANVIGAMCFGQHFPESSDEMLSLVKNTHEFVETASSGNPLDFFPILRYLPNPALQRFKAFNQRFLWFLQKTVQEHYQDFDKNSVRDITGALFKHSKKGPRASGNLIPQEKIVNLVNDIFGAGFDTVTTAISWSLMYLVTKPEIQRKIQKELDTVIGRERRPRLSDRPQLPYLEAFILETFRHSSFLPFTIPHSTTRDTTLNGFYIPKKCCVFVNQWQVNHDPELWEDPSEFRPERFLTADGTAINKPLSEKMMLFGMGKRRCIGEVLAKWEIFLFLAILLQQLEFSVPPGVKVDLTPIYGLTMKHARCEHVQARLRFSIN
As to the kind of experiment: Inhibition of hepatic CYP enzymes: CYP1A2. In kind it is biochemical. Particulars: read-out: CYP1A2 IC50 (mean ± SD).
Source text: as §2

The target of assay [8] is T7, estrogen receptor α (Homo sapiens, UniProt P03372).
T7 sequence (P03372 1-595): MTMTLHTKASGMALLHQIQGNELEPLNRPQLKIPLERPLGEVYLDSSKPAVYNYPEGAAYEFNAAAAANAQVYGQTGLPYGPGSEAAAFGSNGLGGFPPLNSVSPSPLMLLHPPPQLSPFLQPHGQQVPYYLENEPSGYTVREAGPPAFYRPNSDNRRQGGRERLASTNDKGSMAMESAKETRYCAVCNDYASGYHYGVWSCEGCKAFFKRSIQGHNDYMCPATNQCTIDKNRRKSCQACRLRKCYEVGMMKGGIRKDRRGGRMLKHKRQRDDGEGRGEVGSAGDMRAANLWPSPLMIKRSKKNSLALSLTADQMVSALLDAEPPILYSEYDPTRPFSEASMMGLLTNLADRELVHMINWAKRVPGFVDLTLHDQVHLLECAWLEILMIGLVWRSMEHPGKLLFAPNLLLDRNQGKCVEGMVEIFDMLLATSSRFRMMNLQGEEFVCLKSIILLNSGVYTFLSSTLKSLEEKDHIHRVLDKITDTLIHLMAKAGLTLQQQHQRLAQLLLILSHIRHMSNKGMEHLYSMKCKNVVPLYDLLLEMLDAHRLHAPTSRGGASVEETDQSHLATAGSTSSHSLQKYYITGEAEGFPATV
As to the kind of experiment: Affinity for the estrogen receptor α (RBA). The format is binding. The following applies: data not stated. As to the method:
Slight changes were made: The respective inhibitor was incubated at RT for 2 h with shaking.
The receptor affinities are established as RBA (relative binding affinity) values. The RBA value of the reference estradiol is set to 100%.

T5 sequence (P10635 whole entry): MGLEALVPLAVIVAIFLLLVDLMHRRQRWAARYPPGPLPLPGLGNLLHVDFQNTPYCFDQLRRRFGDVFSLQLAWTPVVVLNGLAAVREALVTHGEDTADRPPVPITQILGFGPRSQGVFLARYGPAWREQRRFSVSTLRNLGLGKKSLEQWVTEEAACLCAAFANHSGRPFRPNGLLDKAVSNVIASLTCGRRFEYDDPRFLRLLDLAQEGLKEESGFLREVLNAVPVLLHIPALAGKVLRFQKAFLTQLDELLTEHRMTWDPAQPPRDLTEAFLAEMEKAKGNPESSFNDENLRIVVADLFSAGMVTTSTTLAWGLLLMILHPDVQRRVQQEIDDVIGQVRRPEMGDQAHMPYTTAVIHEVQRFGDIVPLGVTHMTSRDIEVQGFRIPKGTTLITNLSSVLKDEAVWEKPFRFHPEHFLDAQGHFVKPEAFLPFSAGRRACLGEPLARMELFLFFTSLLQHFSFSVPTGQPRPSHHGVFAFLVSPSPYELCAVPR

For the compound `Oc1ccc(-c2csc(-c3ccc(O)cc3)n2)cc1` [Compound 25, 4,4′-(1,3-Thiazole-2,4-diyl)diphenol], the “RBA (%) (Katzenellenbogen patent)” value in assay [1] was 0.018%. Also, the “inhibition of 17β-HSD1 (in words)” value in assay [2] is “no activity”. Besides, the “Inhibition of 17β-HSD1, IC50 (nM)” value in assay [2] (Table 6, isomeric bis(hydroxyphenyl)-1,3-thiazoles) is “no inhibition”.

In the case of `Oc1cccc(-c2cnc(-c3cccc(O)c3)s2)c1` [Compound 22, 3,3′-(1,3-thiazole-2,5-diyl)diphenol], the IC50 in assay [3] came out at 2.5 µM; in assay [4], 4.57 ± 0.05 µM; in assay [5] it was 14.2 ± 0.44 µM; in assay [6], 7.76 ± 0.03 µM; in assay [7] it was 4.92 ± 0.09 µM; in assay [2], 0.28 µM.

As for `Oc1ccc(-c2nc(-c3cccc(O)c3)cs2)cc1` [Compound 24, 3-[2-(4-Hydroxyphenyl)-1,3-thiazole-4-yl]phenol], in assay [8], the “affinity for the estrogen receptor (in words)” value (shortened to “affinity”) is reported as “negligible”. Also, the inhibition at 1 µM in assay [2] (read-out: inhibition of 17β-HSD1 at 1 μM) worked out at 49%.

As to `Oc1ccc(-c2csc(-c3cccc(O)c3)n2)cc1` [Compound 23, 3-[4-(4-Hydroxyphenyl)-1,3-thiazole-2-yl]phenol], the “affinity” value in assay [8] is listed as “negligible”. The IC50 in assay [2] was found to be 0.32 µM.

As for `Oc1cccc(-c2csc(-c3cccc(O)c3)n2)c1` [Compound 26, 3,3′-(1,3-Thiazole-2,4-diyl)diphenol], the half-inhibitory concentration (IC50) was determined as 2.22 µM in assay [3] and 0.41 µM in assay [2]. Moreover, the “affinity” value in assay [8] was “negligible”. The “Selectivity IC50 (17β-HSD2)/IC50 (17β-HSD1)” value in assay [2] (ratio of IC50 values) amounted to 5.4.
